According to patent US20160067211A1, “PHARMACEUTICAL COMPOSITION” (Eberhard Karls Universitaet Tuebingen Medizinische Fakultaet, priority 2013, published 2016):

What was measured:
BLM melanoma cells [1] = experiment: Organotypic human epidermal skin reconstructs, BLM; assay type: cell-based; settings: 100 μM, 40× magnification
Description: FIG. 11: 6-PN and 8-PN reduce proliferation and invasion of BLM and LOXIMVI melanoma cells in human epidermal skin reconstructs and induce little embryo toxicity. (A) BLM melanoma cells and keratinocytes were seeded on top of a collagen matrix populated by fibroblasts. After 16 days a keratinizing stratified epithelium with a rudimentary corium is formed. […] (B) Similar results were obtained for LOXIMVI melanoma cells under the same treatment conditions. Only nests of dead, MIB1 negative LOXIMVI cells were detected after treatment with the PNs. […]
In this assay, keratinocytes and melanoma cells are seeded on top of a collagen matrix populated by fibroblasts. […] Untreated control BLM cells (depicting 70-80% proliferation, determined by MIB1 immunhistochemistry) had formed a large tumor in the epidermal part of the reconstruct and had invaded the corium (FIG. 11A, upper panel). To determine the amount of proliferating cells, the number of MIB1 positive melanoma cells per power field in the epidermal part of the reconstruct at the epidermal-dermal border was counted (40× magnification, n=5 adjacent fields examined). Further, the number of melanoma cells invading the dermal part of the reconstruct was counted in the same high power fields. In reconstructs with untreated BLM cells, 103±15 MIB1 positive cells and 39±13 invasive cells were counted (FIG. 11A, upper panel). […]

[2] = system: LC3 in BLM melanoma cells; experiment: Western blot LC3 (autophagy), BLM; assay type: cell-based, human; settings: 100 μM, after 12-24 hours
Description: (A) Cell cycle FACS analyses of PI stained BLM and SK-MEL-28 melanoma cells. 100 μM of 8-PN-induced a G2 arrest in both cells. (B) FACS analyses of BLM and SK-MEL-28 melanoma cells treated with 100 μM 6-PN or 8-PN and stained for annexin V/PI; staurosporin was used as control for apoptosis induction and DMSO as vehicle control. […] (C) BLM and SK-MEL-28 melanoma cells were treated with 100 μM of PNs; TSA, SAHA and EMSO were used as controls.
The following antibodies were used: Anti-Vinculin and Anti-Actin (1:5000, Sigma-Aldrich), Anti-Acetyl-Histon H3 (1:5000, Millipore, Billerica, USA), Anti-Caspase-3 (1:1000), Anti-AKT, Anti-pAKT, Anti-ERK, Anti-pERK, […], Anti-p70S6 Kinase, and Anti-pS6 protein (1:1000), all from Cell Signaling, Frankfurt, Germany), Anti-LC3 (1:5000, Sigma-Aldrich).
Since it has been speculated that the formation of intracytoplasmic vacuoles in pancreatic or breast cancer cells by 6-PN and 8-PN observed in pervious studies might represent an induction of autophagy, this issue was further investigated on a molecular level. BLM and SK-MEL-28 melanoma cells were treated with 100 μM of 6-PN, 8-PN, SAHA or TSA (and with DMSO as control), and the treated cells were lysed for protein extraction after 1 hour, 2 hours, 4 hours, 12 hours and 24 hours. […]

[3] = system: PI (3) K/Akt-signal path in MCF-7 cells; settings: MCF-7 cells in vitro; cited from earlier work
BLM melanoma cells [4] = experiment: Real time cell monitoring assay (xCELLigence), BLM; assay type: cell-based, human; settings: BLM, 20, 50 and 100 μM, 104 hours, vs. control
Description: FIG. 5: real time cell monitoring of BLM and SK-MEL-28 melanoma cells treated with 6-PN and 8-PN. (A) BML and SK-MEL-28 cells were treated 24 hours after seeding with different concentrations of 6-PN and 8-PN (20 μM, 50 μM and 100 μM) over a 104 hour time period. The cellular impedance was measured over the entire observation time using the xCELLigence™ SP system and is depicted by the cell index (CI). All CI-values were normalized shortly before the treatment started. […] As a positive control, Triton X-100 0.1% was used to induce cell death. Shown are the mean±SD of three independent experiments, each performed in triplicates (B, C). […]
The human melanoma cell lines BLM and SK-MEL-28 (2.5×10^3 cells/well) were seeded in 96 well plates. The cells were treated after 24 hours with different concentrations of 6-PN or 8-PN (20 μM, 50 μM and 100 μM) and monitored by measurements of electrical impedance in 15 minutes intervals for an overall time span of in total 104 hours using the xCELLigencer® SP Systems (Roche Applied Science). The cell index values were calculated using the RTCA software (1.0.0.0805). […]
The human metastatic melanoma cell lines BLM and SK-MEL-28 were treated once with rising concentrations of 6-PN or 8-PN (20 μM, 50 μM and 100 μM) and monitored continuously for an overall time span of 104 hours using a real time monitoring assay (FIG. 5A). […]

CC(C)=CCc1c(O)cc(O)c2c1OC(c1ccc(O)cc1)CC2=O (centres unmarked) [8-PN, 5,7-Dihydroxy-2-(4-hydroxy-phenyl)-8-(3-methyl-but-2-enyl)-chroman-4-one]
invasive cells per high power field (BLM melanoma cells [1]; untreated 39±13): 6±2
MIB1 positive cells per high power field (BLM melanoma cells [1]; untreated 103±15): 16±4
shift from LC3-I to LC3-II (autophagy) [2]: clearly induced the shift
activation of the PI (3) K/Akt-signal path [3]: directly inhibits
normalized cell index (CI) (BLM melanoma cells [4]): descended over time
